#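 GI50 marks 50% less growth. TGI marks complete inhibition of growth.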
# Columns and labels:
# Assay in all cases: NCI-60 cell line screen, 384-well format
# 786-0 renal = tested on: 786-0 renal
# A549 NSCLC = tested on: A549 NSCLC
# BT-549 breast = tested on: BT-549 breast
# COLO 205 colon = tested on: COLO 205 colon
# DU-145 prostate = tested on: DU-145 prostate
# HL-60(TB) leukemia = tested on: HL-60(TB) leukemia
# HS 578T breast = tested on: HS 578T breast
# LOX IMVI melanoma = tested on: LOX IMVI melanoma
# NCI-H23 lung = tested on: NCI-H23 lung
# NCI-H322M lung = tested on: NCI-H322M lung
# NCI-H522 lung = tested on: NCI-H522 lung
# RXF 393 renal = tested on: RXF 393 renal
# UO-31 renal = tested on: UO-31 renal
smiles,measurement,setting,value
C[C@H](N)C(=O)N1C[C@H](CCCB(O)O)[C@](N)(C(=O)O)C1,GI50,786-0 renal,> 100 µM
same,TGI,786-0 renal,> 100 µM
same,GI50,A549 NSCLC,> 100 µM
same,TGI,A549 NSCLC,> 100 µM
same,GI50,BT-549 breast,> 100 µM
same,TGI,BT-549 breast,> 100 µM
same,GI50,COLO 205 colon,> 92 µM
same,TGI,COLO 205 colon,> 100 µM
same,GI50,DU-145 prostate,> 100 µM
same,TGI,DU-145 prostate,> 100 µM
same,GI50,HL-60(TB) leukemia,> 87.2 µM
same,TGI,HL-60(TB) leukemia,> 100 µM
same,GI50,HS 578T breast,> 100 µM
same,TGI,HS 578T breast,> 100 µM
same,GI50,LOX IMVI melanoma,> 100 µM
same,TGI,LOX IMVI melanoma,> 100 µM
same,GI50,NCI-H23 lung,> 100 µM
same,TGI,NCI-H23 lung,> 100 µM
same,GI50,NCI-H322M lung,> 100 µM
same,TGI,NCI-H322M lung,> 100 µM
same,GI50,NCI-H522 lung,> 100 µM
same,TGI,NCI-H522 lung,> 100 µM
same,GI50,RXF 393 renal,> 100 µM
same,TGI,RXF 393 renal,> 100 µM
same,GI50,UO-31 renal,> 100 µM
same,TGI,UO-31 renal,> 100 µM

# — PubChem BioAssay (NCI)
